According to ChEMBL document CHEMBL1201862, “PubChem BioAssay data set” (2004):
Where a name gives a salt, the structure may show the parent alone. Calls of active or inactive are those of the source.

Columns and labels:
Mucolipin-3 [1] = biological target: T1, Mucolipin-3 (Homo sapiens, UniProt Q8TDD5); assay: Dose response cell-based high-throughput screening assay for agonists of the transient receptor potential channel ML3 (TRPML3). [Related pubchem assays: 1526, 1424, 1448 ]; format: functional
T1 sequence (Q8TDD5 whole entry): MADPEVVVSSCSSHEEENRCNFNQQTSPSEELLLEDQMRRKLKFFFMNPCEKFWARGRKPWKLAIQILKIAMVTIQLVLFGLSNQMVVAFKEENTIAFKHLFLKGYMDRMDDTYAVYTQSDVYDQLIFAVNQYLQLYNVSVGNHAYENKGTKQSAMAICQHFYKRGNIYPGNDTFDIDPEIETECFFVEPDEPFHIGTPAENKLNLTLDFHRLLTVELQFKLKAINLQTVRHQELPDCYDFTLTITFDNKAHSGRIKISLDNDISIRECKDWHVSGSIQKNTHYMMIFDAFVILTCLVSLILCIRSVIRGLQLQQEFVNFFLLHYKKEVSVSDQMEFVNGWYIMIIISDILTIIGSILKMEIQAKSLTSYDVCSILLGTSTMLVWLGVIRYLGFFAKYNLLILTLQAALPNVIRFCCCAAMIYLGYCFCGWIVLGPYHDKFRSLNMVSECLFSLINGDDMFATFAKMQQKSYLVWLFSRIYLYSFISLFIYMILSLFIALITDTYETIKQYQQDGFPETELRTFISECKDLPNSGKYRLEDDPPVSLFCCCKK

Ion channel NompC [2] = biological target: T2, Ion channel NompC (Danio rerio, UniProt Q7T1G6); assay: Fluorescence counterscreen assay for TRPML3 agonists: dose response cell-based high-throughput screening assay to identify agonists of the transient receptor potential channel N1 (TRPN1). [Related pubchem assays: 1526, 1424, 1448 ]; format: functional
T2 sequence (Q7T1G6 whole entry): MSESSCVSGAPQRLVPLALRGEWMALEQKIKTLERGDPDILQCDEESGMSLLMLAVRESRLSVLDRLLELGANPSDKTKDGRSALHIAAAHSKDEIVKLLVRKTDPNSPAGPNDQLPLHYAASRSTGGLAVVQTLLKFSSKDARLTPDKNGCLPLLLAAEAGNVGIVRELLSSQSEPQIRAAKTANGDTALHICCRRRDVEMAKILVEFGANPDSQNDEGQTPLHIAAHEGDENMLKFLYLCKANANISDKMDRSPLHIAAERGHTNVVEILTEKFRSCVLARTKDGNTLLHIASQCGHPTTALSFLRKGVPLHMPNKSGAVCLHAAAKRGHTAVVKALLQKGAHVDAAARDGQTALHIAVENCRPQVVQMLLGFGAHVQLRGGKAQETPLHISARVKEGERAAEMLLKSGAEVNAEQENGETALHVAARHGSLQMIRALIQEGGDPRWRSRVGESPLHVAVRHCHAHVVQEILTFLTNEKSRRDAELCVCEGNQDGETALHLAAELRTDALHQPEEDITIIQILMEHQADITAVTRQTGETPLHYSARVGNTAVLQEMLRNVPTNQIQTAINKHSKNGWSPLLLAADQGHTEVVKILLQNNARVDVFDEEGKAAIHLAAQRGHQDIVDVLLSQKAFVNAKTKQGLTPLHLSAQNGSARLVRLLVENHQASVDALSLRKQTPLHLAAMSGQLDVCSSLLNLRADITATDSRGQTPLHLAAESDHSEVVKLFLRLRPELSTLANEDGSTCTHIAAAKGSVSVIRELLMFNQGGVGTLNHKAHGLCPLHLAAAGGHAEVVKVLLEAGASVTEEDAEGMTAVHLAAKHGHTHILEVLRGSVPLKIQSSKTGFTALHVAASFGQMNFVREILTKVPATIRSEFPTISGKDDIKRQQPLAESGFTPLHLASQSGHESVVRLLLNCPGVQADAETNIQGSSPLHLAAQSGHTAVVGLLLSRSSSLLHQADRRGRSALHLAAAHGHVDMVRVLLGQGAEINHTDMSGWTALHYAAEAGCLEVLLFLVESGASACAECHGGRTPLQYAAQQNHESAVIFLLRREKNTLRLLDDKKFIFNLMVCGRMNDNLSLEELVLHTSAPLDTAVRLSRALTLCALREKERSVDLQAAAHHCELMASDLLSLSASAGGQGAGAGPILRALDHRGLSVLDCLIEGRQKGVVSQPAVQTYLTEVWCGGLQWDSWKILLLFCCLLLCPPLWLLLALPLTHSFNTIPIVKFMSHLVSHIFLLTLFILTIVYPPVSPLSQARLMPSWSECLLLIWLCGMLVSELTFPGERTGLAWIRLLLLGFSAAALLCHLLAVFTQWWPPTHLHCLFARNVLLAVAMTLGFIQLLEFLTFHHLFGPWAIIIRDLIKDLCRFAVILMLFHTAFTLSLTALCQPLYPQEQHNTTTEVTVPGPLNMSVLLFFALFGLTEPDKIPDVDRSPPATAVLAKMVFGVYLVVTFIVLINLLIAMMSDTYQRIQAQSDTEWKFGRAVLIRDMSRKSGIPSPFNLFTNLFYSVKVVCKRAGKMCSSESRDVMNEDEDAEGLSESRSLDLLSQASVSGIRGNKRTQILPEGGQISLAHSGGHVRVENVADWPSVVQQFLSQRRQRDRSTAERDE

Mucolipin-3 [3] = biological target: T1, Mucolipin-3; assay: activators of mucolipin-3 and mucolipin-2 – cell-based, patch clamp, Fura-2 profiling panel, panel member TRPML3 Dose Response (AID 2116)
Ion channel NompC [4] = biological target: T2, Ion channel NompC; assay: activators of mucolipin-3 and mucolipin-2 – cell-based, […], Fura-2 profiling panel, panel member TRPN1 Dose Response (AID 2116)
[5] = antiviral protection against BTV-induced cell death – arbovirus, BSR cells, confirmation (AID 1250); format: functional;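 further: protection from viral cytopathic effect measured as cell viability by ATP luminescence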
Bcl-2-like protein 10 = biological target: T3, Bcl-2-like protein 10 (Homo sapiens, UniProt Q9HD36); assay: Concentration-response of Bcl-B inhibitors by biochemical FP with TR3 (AID 1243); format: functional
T3 sequence (Q9HD36 whole entry): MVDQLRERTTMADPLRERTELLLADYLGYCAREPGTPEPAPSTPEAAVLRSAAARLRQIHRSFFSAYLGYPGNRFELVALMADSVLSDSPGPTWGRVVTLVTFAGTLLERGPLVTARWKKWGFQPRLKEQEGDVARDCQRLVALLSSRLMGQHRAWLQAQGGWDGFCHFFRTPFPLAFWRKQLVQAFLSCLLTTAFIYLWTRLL

[6] = biological target: Sphingosine 1-phosphate receptor 2 (Homo sapiens, UniProt O95136); assay: Dose Response Cell Based Assay for Agonists of the S1P2 Receptor of Purchased Analogues. [Related pubchem assays: 729, 843, 854, 736 ]; format: functional
Sphingosine 1-phosphate receptor 2, sequence (O95136 whole entry): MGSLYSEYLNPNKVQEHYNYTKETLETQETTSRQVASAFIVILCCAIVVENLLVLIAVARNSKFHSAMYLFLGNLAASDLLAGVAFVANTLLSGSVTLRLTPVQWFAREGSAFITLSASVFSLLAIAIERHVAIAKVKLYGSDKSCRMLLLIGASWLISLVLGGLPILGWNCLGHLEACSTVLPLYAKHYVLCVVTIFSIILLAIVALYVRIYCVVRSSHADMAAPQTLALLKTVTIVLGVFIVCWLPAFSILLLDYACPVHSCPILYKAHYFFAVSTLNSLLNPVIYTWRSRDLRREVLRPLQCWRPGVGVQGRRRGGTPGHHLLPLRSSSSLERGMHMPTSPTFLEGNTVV

[7] = biological target: Luciferin 4-monooxygenase (Photinus pyralis, UniProt P08659); assay: Counter Screen for Luciferase-based Assay Positives. [Related pubchem assays: 620, 618, 411 ]
Luciferin 4-monooxygenase, sequence (P08659 whole entry): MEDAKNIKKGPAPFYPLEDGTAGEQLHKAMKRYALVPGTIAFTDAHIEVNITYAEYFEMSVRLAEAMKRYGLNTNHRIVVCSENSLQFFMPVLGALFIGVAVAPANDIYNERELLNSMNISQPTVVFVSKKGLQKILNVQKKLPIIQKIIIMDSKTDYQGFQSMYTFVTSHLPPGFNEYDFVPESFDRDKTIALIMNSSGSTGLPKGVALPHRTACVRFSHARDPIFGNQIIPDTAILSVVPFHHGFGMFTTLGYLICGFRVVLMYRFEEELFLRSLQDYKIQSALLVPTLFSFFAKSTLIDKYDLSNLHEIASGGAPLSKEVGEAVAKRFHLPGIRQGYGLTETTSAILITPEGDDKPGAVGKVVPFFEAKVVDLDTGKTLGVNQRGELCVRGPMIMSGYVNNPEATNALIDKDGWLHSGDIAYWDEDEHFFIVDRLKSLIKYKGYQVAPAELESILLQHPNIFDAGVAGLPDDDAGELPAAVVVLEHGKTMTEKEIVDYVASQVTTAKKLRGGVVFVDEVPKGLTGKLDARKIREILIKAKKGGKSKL

HT-1080 = assay: HT1080 cell viability loss – fluorescence readout (AID 620); format: functional, cell-based; details: Homo sapiens
[8] = biological target: T4, Eukaryotic translation initiation factor 2-alpha kinase 3 (Homo sapiens, UniProt Q9NZJ5); assay: Dose response cell-based high-throughput screening assay to measure PERK inhibition. [Related pubchem assays: 1416 ]; format: functional
T4 sequence (Q9NZJ5 whole entry): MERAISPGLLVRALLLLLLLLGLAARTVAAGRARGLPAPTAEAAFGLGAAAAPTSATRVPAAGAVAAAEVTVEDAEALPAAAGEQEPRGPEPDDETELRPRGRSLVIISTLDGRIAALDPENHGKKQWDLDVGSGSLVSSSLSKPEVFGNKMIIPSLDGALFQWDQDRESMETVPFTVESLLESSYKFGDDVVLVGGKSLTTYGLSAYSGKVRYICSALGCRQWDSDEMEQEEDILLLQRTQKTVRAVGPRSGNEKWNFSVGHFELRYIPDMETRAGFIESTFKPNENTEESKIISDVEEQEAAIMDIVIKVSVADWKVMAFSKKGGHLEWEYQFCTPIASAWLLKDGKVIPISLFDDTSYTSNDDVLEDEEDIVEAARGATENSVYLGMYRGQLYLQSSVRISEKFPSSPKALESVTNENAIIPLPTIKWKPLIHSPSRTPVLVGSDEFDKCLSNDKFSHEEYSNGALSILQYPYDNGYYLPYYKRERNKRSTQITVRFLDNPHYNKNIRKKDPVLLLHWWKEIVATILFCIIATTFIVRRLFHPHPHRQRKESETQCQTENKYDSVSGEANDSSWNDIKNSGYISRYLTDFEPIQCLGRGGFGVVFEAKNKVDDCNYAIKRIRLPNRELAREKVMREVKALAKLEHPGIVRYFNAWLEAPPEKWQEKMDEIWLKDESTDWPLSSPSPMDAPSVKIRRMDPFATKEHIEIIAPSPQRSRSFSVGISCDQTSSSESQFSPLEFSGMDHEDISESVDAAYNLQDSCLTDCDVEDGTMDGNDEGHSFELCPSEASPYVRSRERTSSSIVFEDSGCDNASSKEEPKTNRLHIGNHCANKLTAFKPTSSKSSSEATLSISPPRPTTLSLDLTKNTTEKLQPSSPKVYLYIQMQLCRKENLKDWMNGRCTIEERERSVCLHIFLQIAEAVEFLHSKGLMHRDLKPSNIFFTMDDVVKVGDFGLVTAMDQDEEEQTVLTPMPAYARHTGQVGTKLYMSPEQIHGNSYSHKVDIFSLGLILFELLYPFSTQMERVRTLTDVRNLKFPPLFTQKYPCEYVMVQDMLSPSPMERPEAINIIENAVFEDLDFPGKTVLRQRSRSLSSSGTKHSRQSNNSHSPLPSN

[9] = biological target: T4, Eukaryotic translation initiation factor 2-alpha kinase 3; assay: Counterscreen assay for PERK inhibitors: Dose response cell-based high throughput screening assay to measure inhibition of PERK at 6 hours. [Related pubchem assays: 1522, 1416 ]; format: functional
[10] = biological target: Induced myeloid leukemia cell differentiation protein Mcl-1 (Homo sapiens, UniProt Q07820); format: functional
Induced myeloid leukemia cell differentiation protein Mcl-1, sequence (Q07820 whole entry): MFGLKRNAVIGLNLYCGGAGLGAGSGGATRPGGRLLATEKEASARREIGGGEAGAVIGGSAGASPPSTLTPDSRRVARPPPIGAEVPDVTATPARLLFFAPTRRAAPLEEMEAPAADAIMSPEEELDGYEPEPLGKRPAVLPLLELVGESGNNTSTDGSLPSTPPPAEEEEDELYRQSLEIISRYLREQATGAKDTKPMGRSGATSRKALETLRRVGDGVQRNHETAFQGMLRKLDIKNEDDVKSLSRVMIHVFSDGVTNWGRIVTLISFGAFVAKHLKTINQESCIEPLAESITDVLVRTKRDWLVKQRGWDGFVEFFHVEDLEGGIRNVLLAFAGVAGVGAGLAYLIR

[11] = tested on: Streptococcus sp. 'group A'; assay: Streptococcus pyogenes SK(-)GAS viability under kanamycin – luminescence, BacTiterGlo, confirmation, counter-screen for streptokinase expression inhibitor project, dose response (AID 1900); format: functional, organism-based
Streptokinase A = biological target: T5, Streptokinase A (Streptococcus pyogenes serotype M1, UniProt P10520); assay: viability-normalized secreted streptokinase activity reduction – plasminogen activation absorbance, OD405, dose response (AID 1914); format: functional, Streptococcus pyogenes M1 GAS;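 further: secreted streptokinase activity via plasminogen activation per viability signal from cell pellet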
T5 sequence (P10520 whole entry): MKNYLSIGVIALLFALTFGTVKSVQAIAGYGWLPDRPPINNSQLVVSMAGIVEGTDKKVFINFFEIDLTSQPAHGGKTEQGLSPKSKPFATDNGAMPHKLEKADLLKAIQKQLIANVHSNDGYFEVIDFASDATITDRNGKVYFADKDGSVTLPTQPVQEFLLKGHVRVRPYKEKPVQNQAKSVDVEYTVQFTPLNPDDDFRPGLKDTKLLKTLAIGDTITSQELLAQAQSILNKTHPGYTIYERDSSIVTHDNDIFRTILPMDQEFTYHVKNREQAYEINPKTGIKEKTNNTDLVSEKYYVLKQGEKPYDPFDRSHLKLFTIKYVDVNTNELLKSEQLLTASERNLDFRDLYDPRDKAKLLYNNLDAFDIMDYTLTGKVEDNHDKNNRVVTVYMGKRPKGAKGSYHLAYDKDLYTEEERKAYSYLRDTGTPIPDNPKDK

[12] = Luminescence-based dose response cell-based high throughput screening assay for cytotoxic compounds using the IEC-6 intestinal epithelial cell line. [Related pubchem assays: 1858 (Summary AID.), 1825 (Counterscreen.), 1907 (Confirmation screen.)]; format: functional
Streptococcus = assay: GAS UMAA2166 growth inhibition – luminescence, BacTiterGlo, counter-screen for streptokinase expression inhibitor project, dose response (AID 1915); format: functional, organism-based;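 further: potency for reduction of bacterial viability or growth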
P388/ADR = assay: cells; format: functional; details: Mus musculus
SN12K1 = assay: cells; format: functional; details: Homo sapiens, SN12K1
P388 = assay: cells; format: functional; details: Mus musculus, P388

## Cc1ccc(Cl)cc1N1CCN(S(=O)(=O)N2CCCCC2)CC1
Mucolipin-3 [1]
  EC50: 1.84 µM (active)
Ion channel NompC [2]
  EC50: > 29.9 µM (not active)
Mucolipin-3 [3]
  EC50: 3.46 µM (active)
Ion channel NompC [4]
  EC50: > 29.9 µM (inactive)

## N#Cc1c(O)nc(SCC(=O)Nc2nnc(C(F)(F)F)s2)nc1-c1ccccc1
[5]
  IC50: 28.1 µM (active)

## OC1=c2ccccc2=C(O)C12N=Nc1nnc(S)n1N2
Bcl-2-like protein 10
  EC50: 23.8 µM (active)

## Cc1cc(C(=O)COC(=O)C(O)c2ccccc2)c(C)n1Cc1ccccc1 (centres undefined)
[6]
  EC50: > 30 µM (not active)

## CCOC(=O)CNC(=O)CSc1ncnc2c1cnn2-c1ccc(C)cc1
[7]
  EC50: < 0.2 µM (active)
HT-1080
  EC50: > 50 µM (not active)

## CC(C)C(=O)Nc1ccc2c(c1)nc(CCN1CCN(C)CC1)n2C
[8]
  EC50: > 55.7 µM (not active)
[9]
  EC50: > 55.7 µM (not active)

## CN(C)c1ccc(/C=N/N(Cc2ccccc2)c2ccccc2)cc1
[10]
  IC50: 1.52 µM (not active)

## N=c1ccn2c(n1)O[C@H]1[C@H](O)[C@@H](CO)O[C@H]12 [ANCITABINE HYDROCHLORIDE]
[11]
  EC50: 3.2 µM (active)
Streptokinase A
  EC50: > 150 µM (not active)
[12]
  IC50: 1.79 µM (active)
Streptococcus
  EC50: 53.1 µM (active)
P388/ADR
  GI50: 0.205 µM (active)
SN12K1
  GI50: 0.191 µM (active)
P388
  GI50: 0.103 µM (active)
